The target of one test is CDK5/p25NCK (Homo sapiens, UniProt Q00535). Description: ADP-Glo kinase assay on CDK enzymatic activity, CDK5/p25NCK. The format is biochemical. The conditions noted are these: 10 concentrations from 10 μM, 4-fold, 60 min room temperature. Summed up: (§1)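 Ten-point, 4-fold dilution series from 10 μM final was preincubated 10 min with kinase, then 60 min at room temperature with CDKtide substrate and ATP. ADP-Glo luminescence gave inhibition relative to 1 μM AZD4573 and 0.5% DMSO controls; IC50 from curve fitting.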
In general terms: In ADP-Glo the light output rises with the ADP produced.

The target of test [1] is T1, CDK9/CycT1 (Homo sapiens, UniProt P50750). Briefly: ADP-Glo kinase assay on CDK enzymatic activity, CDK9/CycT1. The format is biochemical. Conditions: 10 concentrations from 10 μM, 4-fold, 60 min room temperature. Summed up: as §1
For the next test, the target named is CDK2/CycA2 (Homo sapiens, UniProt P24941). Briefly: ADP-Glo kinase assay on CDK enzymatic activity, CDK2/CycA2. The format is biochemical. Conditions: 10 concentrations from 10 μM, 4-fold, 60 min room temperature. The procedure, abridged: as §1
Test [2] concerns NCI-H929 (human myeloma cells). Briefly: CCK-8 cell proliferation assay, NCI-H929. The format is cell-based. Conditions: 72 h incubation, 11 concentrations from 5000 nM, 3-fold. On the procedure:
Test samples: the compounds of the present invention, having structures shown above.
RMPI 1640, Fetal Bovine Serum (FBS), a CCK-8 method cell proliferation assay kit, DMSO (dimethyl sulfoxide), a 96-well cell culture plate, an Iscov'Modified Dulbecco's culture medium (IMDM), a multifunctional microplate reader,
MV-4-11 (human myelomonocytic leukemia cells) and NCI-H929 (human myeloma cells).
The compounds were dissolved in DMSO and diluted 3-fold in the 96-well plate to obtain stock solutions with 11 concentration gradients. Each cell was inoculated into a 96-well plate, and the diluted compound stock solution was added to the 96-well plate to obtain a series of 11 concentration gradients of compound solutions with final concentrations of 5000 nM starting and 3-fold gradient decreasing, wherein the final DMSO content was […]. There was a medium containing 1‰ DMSO in the negative control well. The treated cells were incubated at 37° C. with 5% CO2 and 95% humidity, wherein MV-4-11 were incubated for 24 h and NCI-H929 for 72 h. After incubation was completed, each well was added with 10 μL of CCK-8 reagent, incubated for 1-3 h at room temperature and placed in the microplate reader, and the absorbance was read at 450 nm.
The inhibition rate was calculated according to the following formula: […]
ODcmpd: compound absorbance; ODpositive: average value of the absorbance of positive control without compound; ODvehicle: average value of the absorbance of solvent vehicle control.
IC50 values were fitted using GraphPad 7.0 based on inhibition rates of compounds at different concentrations.
In general terms: Formazan colour is commonly taken as a measure of viable cells.

Another test concerns the target CDK3/CycE1 (Homo sapiens, UniProt Q00526). Description: ADP-Glo kinase assay on CDK enzymatic activity, CDK3/CycE1. The conditions noted are these: 10 concentrations from 10 μM, 4-fold, 60 min room temperature. The format is biochemical. Summed up: as §1
Test [3] addresses T1, CDK9/CycT1. Briefly: Off-chip mobility shift assay (MSA) on CDK9/CycT1. The format is biochemical. On the set-up: Full-length human CDK9 [1-372(end) amino acids of; host or cells: baculovirus expression system. Conditions: 4-point concentration (0.0016, 0.008, 0.04, 0.2 uM), ATP 10 μM, reaction time 5 hours, read-out: CDK9/CycT1/nM (inhibitory activity). The method, then: Prepare 100× concentrated Test compound stock solutions with DMSO. Then, Dilute the solution 25 times with Assay Buffer (20 mM HEPES, 0.01% Triton X-100, 2 mM DTT, pH7.5) to prepare 4× test compound solutions.
Test compounds were evaluated at 4-point concentration (0.0016, 0.008, 0.04, 0.2 uM). • 1) Mix 5 μL of 4× test compound solution with 5 μL of 4× substrate/ATP/Metal solution and 10 μL of 2× kinase solution in 384-well polypropylene plate. Incubate for 5 hours at room temperature. • 2) Add 70 μL of Termination Buffer (QuickScout Screening Assist MSA; Carna Biosciences) to stop the reaction. • 3) Separate and detect unphosphorylated/phosphorylated substrate peptides in the reactant using LabChip system (Perkin Elmer). • 4) Evaluate kinase reaction from product ratio (P/(P+S)) calculated by peak height of unphosphorylated substrate(S) and peak height of phosphorylated substrate (P).

Structures are written as SMILES.

T1 sequence (P50750 whole entry): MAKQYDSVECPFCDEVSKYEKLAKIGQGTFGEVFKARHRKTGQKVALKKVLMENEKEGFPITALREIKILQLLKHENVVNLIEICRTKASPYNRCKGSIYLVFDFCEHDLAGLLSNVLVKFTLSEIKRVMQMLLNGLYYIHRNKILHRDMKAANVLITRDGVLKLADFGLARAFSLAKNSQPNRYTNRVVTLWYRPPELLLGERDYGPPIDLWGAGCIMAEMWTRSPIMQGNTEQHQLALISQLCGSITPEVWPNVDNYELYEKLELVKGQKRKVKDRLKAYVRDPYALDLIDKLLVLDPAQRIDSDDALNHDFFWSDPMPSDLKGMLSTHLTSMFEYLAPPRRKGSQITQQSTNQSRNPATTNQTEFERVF
T1 sequence (O60563 whole entry partner): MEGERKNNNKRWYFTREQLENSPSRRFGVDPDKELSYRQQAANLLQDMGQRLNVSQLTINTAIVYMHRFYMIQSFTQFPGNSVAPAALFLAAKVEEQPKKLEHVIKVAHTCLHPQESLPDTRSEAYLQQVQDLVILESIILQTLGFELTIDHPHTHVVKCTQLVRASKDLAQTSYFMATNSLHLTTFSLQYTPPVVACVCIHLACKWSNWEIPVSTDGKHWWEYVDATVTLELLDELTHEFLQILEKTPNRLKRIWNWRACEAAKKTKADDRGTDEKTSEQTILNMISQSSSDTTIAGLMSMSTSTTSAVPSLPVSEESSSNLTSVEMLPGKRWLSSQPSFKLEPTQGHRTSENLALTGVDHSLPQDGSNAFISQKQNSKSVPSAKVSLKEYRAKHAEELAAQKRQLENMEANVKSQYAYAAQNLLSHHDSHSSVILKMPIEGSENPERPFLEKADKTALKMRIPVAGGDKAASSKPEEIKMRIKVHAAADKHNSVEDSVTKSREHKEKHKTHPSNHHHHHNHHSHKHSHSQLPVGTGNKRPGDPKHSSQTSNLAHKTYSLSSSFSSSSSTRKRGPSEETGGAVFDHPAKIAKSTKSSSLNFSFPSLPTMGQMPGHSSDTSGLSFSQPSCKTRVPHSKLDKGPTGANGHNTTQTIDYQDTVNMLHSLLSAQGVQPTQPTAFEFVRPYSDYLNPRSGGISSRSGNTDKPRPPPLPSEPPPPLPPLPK
Sequence of CDK5/p25NCK (Q00535 whole entry, species assumed): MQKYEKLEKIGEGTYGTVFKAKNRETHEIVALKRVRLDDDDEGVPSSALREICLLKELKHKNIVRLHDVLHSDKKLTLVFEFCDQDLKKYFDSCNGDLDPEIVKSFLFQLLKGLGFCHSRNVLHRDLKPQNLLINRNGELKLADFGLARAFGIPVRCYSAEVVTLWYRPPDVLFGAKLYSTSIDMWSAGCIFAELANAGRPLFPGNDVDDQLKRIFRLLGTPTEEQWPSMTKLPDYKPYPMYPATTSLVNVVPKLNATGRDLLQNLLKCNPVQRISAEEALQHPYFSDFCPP
Sequence of CDK5/p25NCK (Q15078 99-307 partner limits assumed, species assumed): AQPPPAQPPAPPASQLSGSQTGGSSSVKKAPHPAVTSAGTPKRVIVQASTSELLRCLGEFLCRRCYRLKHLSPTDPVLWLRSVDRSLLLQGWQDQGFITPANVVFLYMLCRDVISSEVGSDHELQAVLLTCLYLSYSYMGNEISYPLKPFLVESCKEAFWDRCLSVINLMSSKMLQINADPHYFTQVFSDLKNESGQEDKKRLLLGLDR
Sequence of CDK3/CycE1 (Q00526 whole entry, species assumed): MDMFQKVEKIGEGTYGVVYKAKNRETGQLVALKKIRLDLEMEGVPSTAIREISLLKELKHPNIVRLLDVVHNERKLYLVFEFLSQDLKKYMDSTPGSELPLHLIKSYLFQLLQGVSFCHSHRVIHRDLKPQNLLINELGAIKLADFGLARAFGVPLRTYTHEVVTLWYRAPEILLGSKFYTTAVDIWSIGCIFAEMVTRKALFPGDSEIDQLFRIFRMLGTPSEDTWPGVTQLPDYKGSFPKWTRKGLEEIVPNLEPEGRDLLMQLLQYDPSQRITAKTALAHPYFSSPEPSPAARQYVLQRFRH
Sequence of CDK3/CycE1 (P24864 whole entry partner, species assumed): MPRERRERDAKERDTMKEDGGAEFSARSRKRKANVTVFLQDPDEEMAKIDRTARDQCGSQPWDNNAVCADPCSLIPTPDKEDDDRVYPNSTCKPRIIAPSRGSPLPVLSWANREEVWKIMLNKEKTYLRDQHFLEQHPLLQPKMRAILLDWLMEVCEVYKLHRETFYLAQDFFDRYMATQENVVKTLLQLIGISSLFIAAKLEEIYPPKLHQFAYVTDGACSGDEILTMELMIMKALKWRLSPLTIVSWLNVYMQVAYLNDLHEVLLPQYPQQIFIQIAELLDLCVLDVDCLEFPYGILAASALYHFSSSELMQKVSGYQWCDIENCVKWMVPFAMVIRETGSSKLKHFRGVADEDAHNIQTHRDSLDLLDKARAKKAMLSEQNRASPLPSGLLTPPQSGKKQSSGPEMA

Regarding `CC(C)Nc1nc(C(F)F)cc2cnc(N[C@H]3CC[C@H](N)C3)cc12` [Compound 52, N^7-((1S,3S)-3-aminocyclopentyl)-3-(difluoromethyl)-N^1-isopropyl-2,6-naphthyridine-1,7-diamine], the IC50 was determined as 16 nM at CDK5/p25NCK; 1 nM at CDK9/CycT1 [1]; 12 nM at CDK2/CycA2; 9 nM in test [2]; 23 nM at CDK3/CycE1.
For the compound `CC(=O)N[C@@H]1CCC[C@H](C(=O)Nc2cc3c(NC(C)C)nc([C@@H](C)O)cc3cn2)C1` [Compound 98, (1S,3R)-3-acetamido-N-(7-((R)-1-hydroxyethyl)-5-(isopropylamino)-2,6-naphthyridin-3-yl)cyclohexane-1-carboxamide], the IC50 on CDK9/CycT1 [3] came to 28 nM.
Turning to `CC(C)Nc1nc([C@@H](C)O)cc2cnc(NCCCO)nc12` [Compound 85, (R)-3-((6-(1-hydroxyethyl)-8-(isopropylamino)pyrido[3,4-d]pyrimidin-2-yl)amino)propan-1-ol], on CDK9/CycT1 [3], the IC50 is 64 nM.
On to `CC(C)Nc1nc(C2COC2)cc2cnc(N[C@H]3CC[C@H](O)CC3)nc12` [Compound 95, (1r,4r)-4-((8-(isopropylamino)-6-(oxetan-3-yl)pyrido[3,4-d]pyrimidin-2-yl)amino)cyclohexan-1-ol], for which the IC50 at CDK9/CycT1 [3] was 34 nM.
Still for that read-out and setting: with `CC(C)Nc1nc(C(F)F)cc2cnc(N[C@H]3CC[C@H](O)CC3)nc12` [Compound 91, (1r,4r)-4-((6-(difluoromethyl)-8-(isopropylamino)pyrido[3,4-d]pyrimidin-2-yl)amino)cyclohexan-1-ol] the figure was 6 nM.
The same measure, in the same setting: with `CC(C)Nc1nc([C@@H](C)O)cc2cnc(NC[C@H]3CC[C@H](NS(C)(=O)=O)CC3)nc12` [Compound 73, N-((1R,4r)-4-(((6-((R)-1-hydroxyethyl)-8-(isopropylamino)pyrido[3,4-d]pyrimidin-2-yl)amino)methyl)cyclohexyl)methanesulfonamide] the figure was 61 nM.
The same measure, in the same setting: with `C[C@@H](O)c1cc2cnc(N[C@H]3CC[C@H](NC(=O)CN(C)C)CC3)nc2c(NCC(C)(C)C)n1` [Compound 64, 2-(dimethylamino)-N-((1R,4r)-4-((6-((R)-1-hydroxyethyl)-8-(neopentylamino)pyrido[3,4-d]pyrimidin-2-yl)amino)cyclohexyl)acetamide] the figure was 26 nM.
Regarding `CC(C)Nc1nc(C#N)cc2cnc(N[C@H]3CC[C@H](O)C3)cc12` [Compound 33, 7-(((1S,3S)-3-hydroxycyclopentyl)amino)-1-(isopropylamino)-2,6-naphthyridine-3-carbonitrile], the IC50 at CDK5/p25NCK was 3 nM; against CDK9/CycT1 [1], 1 nM; on CDK2/CycA2, 3 nM; in test [2] it was 8 nM; on CDK3/CycE1, 9 nM.
Turning to `CC(C)Nc1nc([C@@H](C)O)cc2cnc(N[C@H]3CC[C@H](NC4COC4)CC3)cc12` [Compound 101, (R)-1-(1-(isopropylamino)-7-(((1r,4R)-4-(oxetan-3-ylamino)cyclohexyl)amino)-2,6-naphthyridin-3-yl)ethan-1-ol], at CDK9/CycT1 [3], the IC50 was 15 nM.
`CC(C)Nc1nc([C@@H](C)O)cc2cnc(N[C@H]3CC[C@H](O)CC3)nc12` [Compound 75, (1R,4r)-4-((6-((R)-1-hydroxyethyl)-8-(isopropylamino)pyrido[3,4-d]pyrimidin-2-yl)amino)cyclohexan-1-ol]: at CDK9/CycT1 [3], the IC50 is 36 nM.
Still for that read-out and setting: for `C=Cc1cc2cnc(NC(=O)[C@H]3CCC[C@@H](NC(C)=O)C3)cc2c(NC(C)C)n1` [Compound 99, (1S,3R)-3-acetamido-N-(5-(isopropylamino)-7-vinyl-2,6-naphthyridin-3-yl)cyclohexane-1-carboxamide] the value was 29 nM; for `CC(C)Nc1nc([C@@H](C)O)cc2cnc(NC(=O)[C@@H]3CCCNC3)cc12` [Compound 86, (R)—N-(7-((R)-1-hydroxyethyl)-5-(isopropylamino)-2,6-naphthyridin-3-yl)piperidine-3-carboxamide], 50 nM.
Consider `CC(C)Nc1nc(C#N)cc2cnc(N[C@H]3CC[C@H](NC(=O)CN(C)C)CC3)nc12` [Compound 66, N-((1r,4r)-4-((6-cyano-8-(isopropylamino)pyrido[3,4-d]pyrimidin-2-yl)amino)cyclohexyl)-2-(dimethylamino)acetamide], for which, at CDK9/CycT1 [3], the IC50 turned out to be 5 nM.
Same read-out and setting: for `Cc1cc2cnc(N[C@H]3CC[C@H](O)CC3)nc2c(NC(C)C)n1` [Compound 92, (1r,4r)-4-((8-(isopropylamino)-6-methylpyrido[3,4-d]pyrimidin-2-yl)amino)cyclohexan-1-ol] the value was 64 nM; for `CC(C)Nc1nc([C@@H](C)O)cc2cnc(NC3CC[C@H](C(=O)O)C3)nc12` (stereo in doubt) [Compound 77, (1S,3R)-3-((6-((R)-1-hydroxyethyl)-8-(isopropylamino)pyrido[3,4-d]pyrimidin-2-yl)amino)cyclopentane-1-carboxylic acid], 85 nM.
On the same count and under the same terms, with `CC(=O)N[C@H]1CC[C@H](CNc2ncc3cc([C@@H](C)O)nc(NC(C)C)c3n2)CC1` [Compound 72, N-((1R,4r)-4-(((6-((R)-1-hydroxyethyl)-8-(isopropylamino)pyrido[3,4-d]pyrimidin-2-yl)amino)methyl)cyclohexyl)acetamide] the figure was 97 nM.
As for `CC(=O)N1CCC(CNc2ncc3cc([C@@H](C)O)nc(NC(C)C)c3n2)CC1` [Compound 69, (R)-1-(4-(((6-(1-hydroxyethyl)-8-(isopropylamino)pyrido[3,4-d]pyrimidin-2-yl)amino)methyl)piperidin-1-yl)ethan-1-one], the IC50 on CDK9/CycT1 [3] is 81 nM.
Turning to `CC(=O)N[C@H]1CC[C@H](Nc2ncc3cc([C@@H](C)O)nc(NC(C)C)c3n2)CC1` [Compound 65, N-((1R,4r)-4-((6-((R)-1-hydroxyethyl)-8-(isopropylamino)pyrido[3,4-d]pyrimidin-2-yl)amino)cyclohexyl)acetamide], on CDK9/CycT1 [3], the IC50 turned out to be 21 nM.
As to `CNC(=O)[C@H]1CC[C@@H](Nc2ncc3cc([C@@H](C)O)nc(NC(C)C)c3n2)C1` [Compound 79, (1S,3R)-3-((6-((R)-1-hydroxyethyl)-8-(isopropylamino)pyrido[3,4-d]pyrimidin-2-yl)amino)-N-methylcyclopentane-1-carboxamide], on CDK9/CycT1 [3], the IC50 is 23 nM.
Still for that read-out and setting: with `CC(C)Nc1nc([C@@H](C)O)cc2cnc(NCC3CCNCC3)nc12` [Compound 84, (R)-1-(8-(isopropylamino)-2-((piperidin-4-ylmethyl)amino)pyrido[3,4-d]pyrimidin-6-yl)ethan-1-ol] the figure was 47 nM; with `CC(C)Nc1nc([C@@H](C)O)cc2cnc(N[C@H]3CC[C@H](N)CC3)nc12` [Compound 76, (R)-1-(2-(((1r,4R)-4-aminocyclohexyl)amino)-8-(isopropylamino)pyrido[3,4-d]pyrimidin-6-yl)ethan-1-ol], 10 nM; with `CC(=O)c1cc2cnc(N[C@H]3CC[C@H](O)CC3)nc2c(NC(C)C)n1` [Compound 88, 1-(2-(((1r,4r)-4-hydroxycyclohexyl)amino)-8-(isopropylamino)pyrido[3,4-d]pyrimidin-6-yl)ethan-1-one], 44 nM.
Still for that read-out and setting: for `CC(=O)N[C@@H]1CCC[C@H](C(=O)Nc2cc3c(NC(C)C)nc(C(F)F)cc3cn2)C1` [Compound 1, (1S,3R)-3-acetamido-N-(7-(difluoromethyl)-5-(isopropylamino)-2,6-naphthyridin-3-yl)cyclohexane-1-carboxamide] the value was 7 nM.

The values above are taken from US20250163043A1 (TRANSTHERA SCIENCES (NANJING), INC., priority 2021, published 2025).
